Experiments:
[1] = target: T1, IN-CCD/LEDGF-IBD interaction (Human immunodeficiency virus type 1 group M subtype B, UniProt P12497, F1332K); experiment: HTRF-based CCD-IBD interaction assay; format: binding, HIV-1; settings: Table 1
T1 construct: cloning the integrase region (residues 50 to 202, encoding the catalytic core domain); made in house
Description: All HTRF® conjugated monoclonal antibodies were purchased from Cisbio Bioassays.

IN NL4-3 wt = target: T2, IN NL4-3 wt (Human immunodeficiency virus type 1 group M subtype B, UniProt P12497); design: species or system HIV-1; settings: pre-incubation with 100 μM compound
T2 construct: loaded on a Superdex 200 16/600 PG column (for full length IN); made in house
Method: SEC was performed with a Superdex 200 10/300 GL column (GE Healthcare) using a flow-rate of 0.4 mL/min in buffer containing 50 mM HEPES, pH 7.5, 1 M NaCl, 7 mM CHAPS, 5 mM MgCl2, 10 mM DTT, 10% glycerol at room temperature. […] Protein elution was monitored at 280 nm.

viral protease = viral protease (Human immunodeficiency virus type 1 group M subtype B, UniProt P12497); experiment: Viral protease inhibition (unpublished data); format: biochemical, HIV-1
[2] = system: HIV-1 proviral DNA (late reverse transcription product, integrated DNA); experiment: Quantification of viral cDNA by real-time PCR in infected MT4 cells; format: cell-based
Method: Prior to infection, viral stocks were treated 1 h at 37°C with 100 U per mL of DNAseI (Roche Applied Science). MT4 cells (6x10^6) were infected with virus at MOI = 0.001. At 7 h, 24 h and 48 h post-infection, cells were harvested, washed twice in PBS and DNA was extracted using the QIAamp Blood DNA Minikit (Qiagen). Quantifications of viral DNA were performed by real-time PCR using the LightCycler 480 system (Roche Applied Science). Primers, probes, and PCR run conditions were described previously. The copy number of HIV-1 late reverse transcription product (LRT) was determined using standard curves obtained by amplification of cloned DNA containing the matched sequences. The copy number of integrated HIV-1 DNA was determined in reference to a standard curve generated by concomitant two-stage PCR amplification of a serial dilution of the standard HeLa HIVR7-Neo cell DNA [59]. Copy numbers of each viral form were normalized with the number of cells obtained by the quantification by PCR of the β-globin gene according to the manufacturer instructions (Roche Applied Science).

[3] = system: NL4-3 IN T174I mutant virus; format: cell-based, HIV-1
[4] = system: NL4-3 HIV-1 virus bearing the T174I mutation in IN; experiment: microbe, parasite or virus in culture; format: cell-based; settings: Human immunodeficiency virus 1, NL43, read-out: EC50 on NL4-3 IN T174I mutant
HxB2 HIV-1 = experiment: Antiviral assay in MT4 cells infected with HxB2; format: cell-based; settings: Human immunodeficiency virus 1, HXB2, MT4; Table 1; read-out: HxB2 EC50 (MT4 assays)
[5] = system: NL4-3 Integrase G140S, Q148H; experiment: Antiviral assay on INSTI-resistant virus; format: cell-based, HIV-1; settings: ratio EC50 resistant virus / wt virus
[6] = target: T3, IN strand transfer activity (Human immunodeficiency virus type 1 group M subtype B, UniProt P12497); experiment: IN strand transfer ELISA assay; format: biochemical, HIV-1
T3 construct: loaded on a Superdex 200 16/600 PG column (for full length IN); made in house
Method: IN strand transfer ELISA assay has been adapted from. […] 16 μL of IN mixture (20 mM HEPES pH 7.5, 10 mM MgCl2, 1 mM DTT, 0.50 μM His6-IN) was added. […] The reaction was stopped by addition of 60 μL stop mixture (20 mM Tris–HCl pH 7.6, 0.4 M NaCl, 10 mM Na2EDTA, 0.1 mg/mL salmon sperm DNA) and the volume transferred to Reacti-Bind high-binding capacity streptavidin-coated white plates (Thermo Scientific Pierce). After 1 h incubation at room temperature under gentle shaking, integrase and unjoined DNA were removed by three washes with 200 μL wash solution 1 (30 mM NaOH, 0.2 M NaCl, 1 mM Na2EDTA). 100 μL of 2000-fold diluted HRP-conjugated anti-DIG Fab (Roche Applied Science) was added and the plate was incubated for 1 h at 37°C. Unbound antibody was removed with wash solution 2 (PBS pH 7.4, 0.05% Tween-20, 0.1% bovine serum albumin), 100 μL of SuperSignal Femto ELISA substrate (Thermo Scientific Pierce) was added and chemiluminescence was immediately read in a PHERAstar Plus with LUM-plus module. The signal, converted to % inhibition, was analyzed by fitting a sigmoidal dose–response curve to determine IC50 and the inhibition plateau.

[7] = system: panel of virus mutants in an NL4-3 background resistant to INSTIs and other classes of ARV drugs; settings: EC50 on resistant virus / EC50 on wt
[8] = system: VSV-G-pseudotyped NL4-3Δenv-luc; experiment: microbe, parasite or virus in culture; format: cell-based, HIV-1
IN-CCD wt = IN-CCD wt (Human immunodeficiency virus type 1 group M subtype B, UniProt P12497, F1332K)
in vitro = format: cell-based; settings: human
Method: Growth inhibition was monitored in a proliferating human T-cell line (MT-4) with different concentrations of compounds. ATP levels were quantified using the CellTiter-Glo® luminescent reagent (Promega) to measure the ability of a compound to inhibit cell growth, an indication of the compound’s cytotoxicity. Cytotoxicity was evaluated at either day 2 or day 5.

Cc1nc2c(c(-c3ccc4c(c3)CCCO4)c1C(OC(C)(C)C)C(=O)O)CCCC2 (stereo not shown) [Mut101, 2-(tert-butoxy)-2-[4-(3,4-dihydro-2H-1-benzopyran-6-yl)-2-methyl-5,6,7,8-tetrahydroquinolin-3-yl]acetic acid]
IC50 [1]: 230 nM | Effect on IN wt oligomerization state (SEC) (IN NL4-3 wt): higher IN oligomerization state | Inhibition of viral protease (viral protease): does not inhibit viral protease | Integration of the proviral DNA (qPCR) [2]: inhibited the integration of the proviral DNA | Production of proviral DNA at reverse transcription (qPCR) [2]: not the production of proviral DNA at reverse transcription | Infectivity of NL4-3 IN T174I virus produced in presence of compound [3]: insensitive | EC50 [4]: > 50000 nM | EC50 (HxB2 HIV-1): 92 nM | EC50 fold change INSTIs [5]: 1 | IC50 ([6]; Table 1, ELISA, read-out: IN ST IC50): 170 nM | IN ST plateau (%) ([6]; inhibition plateau, concentrations up to 100 μM): 66% | EC50 fold change (FC) ratio against all resistant viruses [7]: ≤ 1 | SR/MR ratio [8]: 18 | EC50 ([8]; Human immunodeficiency virus 1, NL43, MT4, read-out: NL4-3 EC50 Single-round): 9000 ± 1500 nM | Kd (IN-CCD wt): 120 nM | CC50 (in vitro): > 50000 nM

Source: PMC4222603, “Dual inhibition of HIV-1 replication by integrase-LEDGF allosteric inhibitors is predominant at the post-integration stage” (Retrovirology, 2013)
